The values below come from patent publication US9855239B2, “Methods for the treatment and prevention of age-related retinal dysfunction” (University of Washington, priority 2008, dated 2018).

A short description of data set [1]: Retinoid kinetics in the eyes during dark adaptation, long-term treatment. It counts as in vivo, mouse. The following applies: 10 months of age, N1 vs C1, 60 min after the bleach (p<0.01). On the procedure:
Recovery of the ERG response (dark adaptation) following bleach was measured by monitoring the amplitude of a-waves after retinal exposure to intense constant illumination (500 cd·m^−2, ˜90% bleached rhodopsin) for 3 min. […] Retinoid kinetics in the eyes of each group were quantitatively evaluated during 60 min of dark adaptation after 3 min of bleaching at four subsequent time points of dark adaptation (0, 10, 30, and 60 min). […] Neither 9-cis-retinal nor 9-cis-retinyl esters were found in eyes from untreated groups (data not shown).
Two weeks after the last gavage with either, 9-cis-R-Ac, all-trans-R-Ac or vehicle, groups of 48 hr dark-adapted mice were analyzed for recovery of dark adaptation after light exposure, purified rhodopsin/opsin and retinoids in the eye and retinal morphology (FIG. 1C; Methods). Mice were exposed to light of intensity 500 cd·m^−2 that bleached ˜90% of rhodopsin, anesthetized and monitored by ERG for one hr to evaluate recovery of dark adaptation. Rhodopsin was purified and rhodopsin/opsin ratios was determined. Retinoid analyses were performed on dissected eyes removed at 0, 10, 30, and 60 min after exposure to the same amount of light. Mice used to evaluate retinal morphology were not exposed to photobleaching prior to analysis. […]

A short description of data set [2]: Retinoid levels in eyes by HPLC, single dose. The data set is classed as in vivo, mouse. As to the method: Forty eight hr dark-adapted, 10-month-old mice were gavaged with a single dose (˜80 mg/kg body weight) of 9-cis-R-Ac or control vehicle and exposed to strong illumination for 20 min (500 cd·m^−2 that bleached ˜90% rhodopsin). Next, mice were dark-adapted for 16 hr after which various analyses were performed (FIG. 1A). […] To investigate whether 9-cis-retinal was utilized to form isorhodopsin and to assess how much unliganded opsin was present in the mouse eyes, rhodopsin, isorhodopsin and opsin were purified by immunoaffinity chromatography from treated and control groups of mice. […] After bleaching, 9-cis-retinal is bound to opsin even in the presence of a functional retinoid cycle that produces 11-cis-retinal to regenerate rhodopsin. Eyes from non-bleached or bleached and dark-adapted untreated mice contained a small amount of free opsin.
9-cis-R-Ac was prepared as previously described (Batten, M. L., et al. PLoS medicine 2, e333 (2005); Batten, M. L., et al. J Biol Chem 279, 10422-10432 (2004)). A dose of ˜80 mg/kg body weight of 9-cis-R-Ac in 150 μl vegetable oil was administered via gavage to each treated animal. Prior to single dose experiments (FIG. 1A, Table 1), 10-month-old mice were dark-adapted for more than 48 hr, gavaged with 9-cis-R-Ac or vehicle control solution 1 hr before bleaching, exposed to light for 20 min at 500 cd·m^−2 and dark-adapted for 16 hr before analysis.
All experimental procedures related to extraction, derivatization and separation of retinoids were carried out under dim red light provided by a Kodak No. 1 safelight filter (transmittance>560 nm) as described previously (Van Hooser, J. P., et al. Proceedings of the National Academy of Sciences of the United States of America 97, 8623-8628 (2000); Van Hooser, J. P., et al. J Biol Chem, 277, 19173-19182 (2002); Maeda, A., et al. J Biol Chem 280, 18822-18832 (2005); Van Hooser, J. P., Garwin, G. G. & Saari, J. C. Methods Enzymol 316, 565-575 (2000)). Eluted fractions of purified rhodopsin from 6 mouse eyes were combined (total 3.0 ml) and mixed with an equal volume of 100% methanol. The mixture was vortexed and incubated on ice for 15 min. Retinoids were extracted twice with an equal volume of 100% hexane (6 ml total). The combined extracts were dried under argon and retinoids were separated by normal phase HPLC (Beckman, Ultrasphere-Si, 5 μm, 4.6×250 mm) with 10% ethyl acetate and 90% hexane at a flow rate of 1.4 ml/min and detected at 325 nm by an HPI 100 HPLC with a diode array detector and HP Chemstation A.03.03 software. A2E was analyzed as previously described (Maeda, A., et al. J Biol Chem, 280, 18822-18832 (2005)).

In data set [3] the test system is Lrat−/− and Rpe65−/− knockout mice. The following applies: gastric gavage, Lrat−/− mice; cited from earlier work.

Structures are written as SMILES. “Also recorded” adds a separate entry of the source.

For the molecule `CC(=O)OC/C=C(C)/C=C/C=C(C)\C=C\C1=C(C)CCCC1(C)C` [9-cis-R-Ac, 9-cis-retinyl acetate], in data set [1], the “regeneration level of 11-cis-retinal in eyes” value was “significantly higher”. Moreover, the 9-cis-retinal in eyes entry is “Significant amounts of 9-cis-retinal were detected; also recorded: detected only in the eyes of 9-cis-R-Ac treated mice” in data set [2] (exposed to intense light, treated mice) and “Only trace amounts” in data set [2] (unbleached treated mouse eyes). In addition, in data set [2] (treated and exposed to intense light), the “9-cis-retinyl esters in eyes (RPE)” value is on record as “significant amount of 9-cis-retinyl esters; also recorded: easily detectable; also recorded: detected only in the eyes of 9-cis-R-Ac treated mice”. In addition, in data set [2] (treated vs control), the “amounts of 11-cis-retinal and all-trans-retinyl esters in eyes” value is “not significantly affected; also recorded: similar”. Besides, the “beneficial effects compared with 9-cis-retinal” value in data set [3] is on record as “same beneficial effects as 9-cis-retinal”.
